Assay results taken from US8203033B2, “Methods and compositions for providing tolerance to multiple herbicides” (Pioneer Hi-Bred International, Inc., priority 2005, dated 2012).

Experiments:
[1] = tested on: parent elite stiff stalk inbred corn; assay: Postemergence test of herbicides on corn (fresh weight, visual injury); assay type: in vivo; details: 3472 g ae/ha
[2] = tested on: Heterozygous GAT-HRA corn; assay: as above; assay type: in vivo; details: 3472 g ae/ha
[3] = tested on: GAT-HRA transgenic cotton plants; assay: Greenhouse over-the-top herbicide spray of cotton; assay type: in vivo, Gossypium hirsutum
Description: (§1) Cotton (Gossypium hirsutum) Coker 312 was transformed with a GAT polynucleotide (gat 4621) together with an Hra polynucleotide (SEQ ID NO:86) both operably linked to strong, constitutive plant viral promoters. The promoter linked to gat4621 contains a duplicated portion of the Strawberry Vein Banding Virus transcript promoter (Wang et al. Virus Genes 20: 11-17, 2000; Genbank X97304). The Hra gene was driven by a duplicated portion of the Mirabilis Mosaic Caulimovirus full-length transcript promoter (U.S. Pat. No. 6,420,547; Dey and Maiti, Transgenics 3:61-70, 1999). The transformation procedure used Agrobacterium tumefaciens containing an expression cassette with the genes to be transferred and cotyledon explant derived callus with some capacity to undergo embryogenesis. The callus was exposed to Agrobacterium for 48-72 hours. The callus was then exposed to selection for transformed cells on 50-200 μg/l chlorosulfuron and/or 50-450 μM glyphosate in solid medium. Glyphosate can also be used in a concentration range of about 5 to about 450 μM. Selection was applied until somatic embryos formed, and selection was again applied at the embryo germination step, and optionally during rooting of plantlets. Over 450 GAT-HRA transformation events were produced using selection with both chlorsulfuron and glyphosate.
(§2) Transformed cotton plants were rooted and then transferred to soil for further growth. Plants were then subjected to herbicide spray treatments in a greenhouse. […] Untransformed Coker 312 control plants were dead 2 weeks after glyphosate application. […] Plants transformed with both GAT and HRA were further subjected to an “over the top” application of the sulfonylurea herbicide rimsulfuron at a rate of 16 g active ingredient/hectare. […] In further experiments 32 g ai/ha rimsulfuron were applied to the cotton.

[4] = tested on: Untransformed Coker 312 control plants; assay: Greenhouse over-the-top herbicide spray of cotton; assay type: in vivo, Gossypium hirsutum
Description: as §1, §2

[5] = tested on: non-transformed GS3 embryos; assay: Glyphosate kill curve; assay type: cell-based, maize; details: about 40 days culture
Procedure: A glyphosate kill curve was established by testing non-transformed embryos response on media with different levels of glyphosate. GS3 embryos were isolated from an immature ear and placed onto media containing glyphosate at 0.0, 0.5, 1.0, and 2.0 mM. After about 40 days culture, the response of the embryos were observed and recorded. Similarly, infected GS3 embryos with the GAT construct were placed onto media containing glyphosate at 0.0, 0.5, 1.0, and 2.0 mM. After about 40 days culture, the response of the infected embryos were observed and recorded (FIG. 7).
Western or PCR analysis has confirmed that these resistant calli were transformed. Currently, GAT has performed consistently as an effective selectable marker with excellent transformation efficiency in both GS3 and introEF09B genotypes (FIG. 10 and Table 45).

[6] = tested on: non-glyphosate resistant ryegrass (70-04); assay: Glyphosate, metsulfuron-methyl and two additives on the control of ryegrass; assay type: in vivo; details: 0.5 L ha^−1 glyphosate (SCAT)
Procedure: The example was conducted on non-glyphosate resistant ryegrass. As provided in Table 23, all treatments that included glyphosate [180 g a.i. L ha^−1 (0.5 L glyphosate (SCAT®))] plus metsulfuron-methyl (BRUSH-OFF®) (5 and 10 g ha^−1) gave 100% control of the ryegrass.

[7] = tested on: Hairy Fleabane (Conyza bonariensis); assay: Glyphosate, metsulfuron-methyl and two additives on the control of hairy fleabane; assay type: in vivo; details: glyphosate on its own; 10-15 leaf stage
Procedure: This example included the same treatments as used in Example 11, except the treatments were carried out on a glyphosate sensitive biotype of Kleinskraalhans (Conyza bonariensis).

GAT-HRA soybeans = assay: Postemergence herbicide spray of soybeans, visual injury; assay type: in vivo; details: 35 g/ha
Procedure: (§3) Young regenerated transgenic plants were sprayed with 1× glyphosate (1× rate of glyphosate is 1120 g/ha of glyphosate isopropylamine) to cull segregants. Four replications were performed for each treatment. Plants were then treated with various herbicides, including glyphosate and ALS-inhibitor herbicides.
(§4) Six soybean seeds from each variety to be assayed were planted 1 cm deep in 5.5 (13.97 cm) inch square plastic container of a synthetic growth medium. […] When possible, containers were thinned to two uniform plants. Non-transgenic lines were thinned to two uniform plants per container.
(§5) Results are expressed below in Table 11 as the mean of four replications.

[8] = tested on: non-transgenic control soybeans; assay: as above; assay type: in vivo; details: 35 g/ha
Procedure: as §3, §4, §5

O=C(O)CNCP(=O)(O)O [Glyphosate, N-phosphonomethylglycine]
% Visual Injury [1]: 100% | Fresh Weight ([1]; 2 weeks after treatment): 1.0 g | % Visual Injury [2]: 10% | GAT-HRA transgenic plants that showed no deleterious symptoms ([3]; 1.5 lb acid equivalent per acre, 4-6 leaf stage, 14 days after application): approximately 50% | state of control plants after application ([4]; 1.5 lb acid equivalent per acre, 4-6 leaf stage, 2 weeks after application): dead | embryos that showed callus initiation ([5]; 0.5 mM glyphosate in medium): about half | callus growth ([5]; 1.0 mM glyphosate in medium): very little callus growth | callus growth ([5]; 2.0 mM glyphosate in medium): very little callus growth | percentage printed with the plants that died [6]: 12% | plants that eventually died [6]: 15 of the 16 | percentage printed with the plants killed [7]: 12%

CCS(=O)(=O)c1cccnc1S(=O)(=O)NC(=O)Nc1nc(OC)cc(OC)n1 [Rimsulfuron, N-[[(4,6-dimethoxy-2-pyrimidinyl)amino]carbonyl]-3-(ethylsulfonyl)-2-pyridinesulfonamide]
transgenic plants that showed no deleterious symptoms from the dual herbicide application ([3]; rimsulfuron 16 g active ingredient/hectare after glyphosate 1.5 lb ae/acre, 14 days after rimsulfuron, 28 days after glyphosate): approximately 35% | damage of untransformed plants ([4]; 16 g active ingredient/hectare, in the absence of any glyphosate application): severe damage

COC(=O)c1ccccc1S(=O)(=O)NC(=O)N(C)c1nc(C)nc(OC)n1 [Tribenuron-methyl, methyl 2-[[[[N-(4-methoxy-6-methyl-1,3,5-triazin-2-yl)-N-methylamino]carbonyl]-amino]sulfonyl]benzoate]
damage of GAT- and HRA-containing transgenic soybeans (GAT-HRA soybeans): no significant damage | effect on non-transgenic control soybeans [8]: killed
